Experimental data published in ChEMBL document CHEMBL4831492, “Design and synthesis of 2-(2-isonicotinoylhydrazineylidene)propanamides as InhA inhibitors with high antitubercular activity” (Eur J Med Chem, 2021).
Values after ≈ are worked out from the molar mass of the structure shown. Active and inactive are the calls of the source. The calls are words filed in the database; no cut-off is given here.

Key:
[1] = test system: Mycobacterium tuberculosis; experiment: Antimycobacterial activity against drug susceptible Mycobacterium tuberculosis H37Rv assessed as minimal inhibitory concentration required for complete inhibition of mycobacterial growth incubated for 14 days; type: functional; conditions: 336 h, time 14 day
[2] = test system: Mycobacterium tuberculosis; experiment: Antimycobacterial activity against drug susceptible Mycobacterium tuberculosis H37Rv assessed as minimal inhibitory concentration required for complete inhibition of mycobacterial growth incubated for 21 days; type: functional; conditions: 504 h, time 21 day
Mycobacterium kansasii [3] = experiment: Antimycobacterial activity against drug resistant Mycobacterium kansasii 6509/96 assessed as minimal inhibitory concentration required for complete inhibition of mycobacterial growth incubated for 7 days; type: functional; conditions: 6509/96, 168 h, time 7 day
Mycobacterium kansasii [4] = experiment: Antimycobacterial activity against drug resistant Mycobacterium kansasii 6509/96 assessed as minimal inhibitory concentration required for complete inhibition of mycobacterial growth incubated for 14 days; type: functional; conditions: 6509/96, 336 h, time 14 day
Mycobacterium kansasii [5] = experiment: Antimycobacterial activity against drug resistant Mycobacterium kansasii 6509/96 assessed as minimal inhibitory concentration required for complete inhibition of mycobacterial growth incubated for 21 days; type: functional; conditions: 6509/96, 504 h, time 21 day
Mycobacterium kansasii [6] = experiment: Antimycobacterial activity against drug resistant Mycobacterium kansasii 235/80 assessed as minimal inhibitory concentration required for complete inhibition of mycobacterial growth incubated for 7 days; type: functional; conditions: 235/80, 168 h, time 7 day
HepG2 [7] = experiment: Cytotoxicity against human HepG2 cells assessed as reduction in cell viability incubated overnight followed by compound washout by MTT assay; type: cell-based
HepG2 [8] = experiment: Cytostatic activity in human HepG2 cells assessed as reduction in cell viability incubated overnight followed by compound washout and further incubated for 72 hrs in medium containing serum by MTT assay; type: functional, cell-based; conditions: HepG2, 72 h
Mycobacterium avium [9] = experiment: Antimycobacterial activity against drug resistant Mycobacterium avium 330/88 assessed as inhibition of mycobacterial growth at 125 uM incubated for 14 days; type: functional, organism-based; conditions: time 14.0 day
Mycobacterium avium [10] = experiment: Antimycobacterial activity against drug resistant Mycobacterium avium 330/88 assessed as inhibition of mycobacterial growth at 125 uM incubated for 21 days; type: functional, organism-based; conditions: time 21.0 day
Mycobacterium kansasii [11] = experiment: Antimycobacterial activity against drug resistant Mycobacterium kansasii 235/80 assessed as inhibition of mycobacterial growth at 62.5 uM incubated for 14 days; type: functional, organism-based; conditions: time 14.0 day
Mycobacterium kansasii [12] = experiment: Antimycobacterial activity against drug resistant Mycobacterium kansasii 235/80 assessed as inhibition of mycobacterial growth at 62.5 uM incubated for 21 days; type: functional, organism-based; conditions: time 21.0 day
[13] = Selectivity index, ratio of CC50 for cytotoxicity against human HepG2 cells to MIC for antimycobacterial activity against drug susceptible Mycobacterium tuberculosis H37Rv; type: toxicity, cell-based; conditions: read-out: Selectivity Index
[14] = Selectivity index, ratio of CC50 for cytotoxicity against human HepG2 cells to MIC for antimycobacterial activity against drug susceptible Mycobacterium […]; type: toxicity, cell-based; conditions: read-out: Selectivity Index

C/C(=N\NC(=O)c1ccncc1)C(=O)Nc1cccc(Cl)c1
MIC [1]: 0.125 µM (≈ 0.0396 µg/mL) | MIC [2]: 0.125 µM (≈ 0.0396 µg/mL) | MIC (Mycobacterium kansasii [3]): 2 µM (≈ 0.633 µg/mL) | MIC (Mycobacterium kansasii [4]): 2 µM (≈ 0.633 µg/mL) | MIC (Mycobacterium kansasii [5]): 4 µM (≈ 1.27 µg/mL) | MIC (Mycobacterium kansasii [6]): 32 µM (≈ 10.1 µg/mL) | IC50 (HepG2 [7]): > 50 µM | IC50 (HepG2 [8]): > 50 µM | Activity (Mycobacterium avium [9]): inactive | Activity (Mycobacterium avium [10]): inactive | Activity (Mycobacterium kansasii [11]): inactive | Activity (Mycobacterium kansasii [12]): inactive | selectivity ratio [13]: > 400 | selectivity ratio [14]: > 12.5
